Data from publication PMC5085131, “Cyclic AMP efflux inhibitors as potential therapeutic agents for leukemia” (Oncotarget, 2016).
Read-outs that look alike come from different tables or passages of the source. Blank lines part the entries; values can stand above or below the molecule they belong to.

Tests used:
VLA-4 = target: VLA-4; parameters: method as in PMID 18534032; conditions: cited from earlier work
normal human PBMCs = assay: CellTiter-Glo cell viability; format: cell-based; conditions: PBMC, overnight, n = 6, ± SEM, read-out: Compound EC50, PBMCs (cell viability)
Description: Healthy PBMCs were obtained from volunteers. Mononuclear cells were purified using Mono-Poly resolving medium (MP Biomedicals, cat. 091698049) according to manufacturer's instructions. PBMCs were resuspended in cRPMI and kept on ice prior to use.
(§1) Cell viability was determined with the CellTiter-Glo® Luminescent Cell Viability Assay (Promega). Greiner 655083 had 100 μL cRPMI +/− 4×10^4 cells/well, and dose response curves of compounds ranged from 100 μM to 1.53 nM (1% DMSO). Wells with DMSO-only served as negative controls. Samples were incubated overnight, and the assay was completed according to the manufacturer's protocol. Plates were analyzed using a Victor^3V™ 1420 Multilabel Counter (Perkin Elmer).

U937 cells [1] = assay: MultiCyt 4-Plex apoptosis assay; format: cell-based, human; conditions: Homo sapiens, U-937, 24 h
Description: Apoptosis was determined using MultiCyt® 4-Plex Apoptosis Screening Kit (IntelliCyt, cat. 90053). The kit provides four different apoptosis endpoints that include effector caspases 3 and 7 activation, phosphatidylserine surface expression, mitochondrial membrane depolarization and cell membrane integrity. […] Cell membrane damage is detected by the uptake of a proprietary DNA intercalating agent analogous to 7-aminoactinomycin D.
384-well plates (Greiner 784201), pre-loaded with 5 μL cRPMI were stamped using a pintool with 100 nl of DMSO-solubilized compounds from the 100-fold concentrated stock solution. Next, 5 μL U937 cells (2 × 10^6/ml in cRPMI) were added to wells and mixed, and plates were foil-sealed. Compounds (Table 1) were tested in dose response at final concentrations ranging from 15.2 nM to 100 μM (1% DMSO final). Vehicle (DMSO) was used as a negative control. After 24 h incubation under culture conditions, the IntelliCyt MultiCyt 4-Plex Apoptosis Screening Kit was used according to manufacturer's protocol. The data were acquired using iQue Screener Platform (IntelliCyt). Singlet cell populations were analyzed for individual measures of apoptosis, and gates were set based on control histograms.

[2] = parameters: method as in as printed in each cell; conditions: previously reported; cited from earlier work
B-ALL cell lines [3] = assay: CellTiter-Glo cell viability, all B-ALL cell lines together; format: cell-based, human; conditions: for EC50: Homo sapiens, mean of converged EC50s of six B-ALL lines, read-out: Compound EC50, Mean B-ALL (cell viability); for Sensitivity of B-ALL lines compared with U937 cells: cell viability, overnight
Description: as §1

[4] = system: primary B-ALL patient samples; assay: CellTiter-Glo cell viability of primary ALL patient samples ex vivo; format: cell-based, human; conditions: for EC50: Homo sapiens
Description: Bone marrow samples were acquired at diagnosis from pediatric B-ALL patients. Mononuclear cells were enriched by centrifugation in Ficoll-Paque (GE Healthcare, cat. 17-1440-02) and aliquoted for storage in liquid nitrogen until use. Samples were thawed in a 37°C water bath, resuspended in 20% FBS cRPMI, and centrifuged to remove freezing medium. Cells were resuspended in conditioned medium (DMEM, 10% FBS, 50 U/ml penicillin-streptomycin, 2 mM L-glutamine) from HS-5 stromal cell cultures.
as §1
For primary ALL patient samples, media consisted of 50% cRPMI, 50% conditioned DMEM from HS-5 stromal cell cultures and compounds. Cell densities ranged from 28,000-68,000 cells/well, and plates were foil-sealed prior to incubation.

Sup B15 = assay: CellTiter-Glo cell viability; format: cell-based; conditions: Homo sapiens, overnight, n = 6, ± SEM, read-out: Compound EC50, Sup B15 (cell viability)
Description: as §1

RS4;11 = assay: CellTiter-Glo cell viability; format: cell-based; conditions: Homo sapiens, overnight, n = 6, ± SEM, read-out: Compound EC50, RS4;11 (cell viability)
Description: as §1

697 = assay: CellTiter-Glo cell viability; format: cell-based; conditions: Homo sapiens; overnight, n = 6, ± SEM; read-out: Compound EC50, 697 (cell viability)
Description: as §1

U937 cells [5] = assay: CellTiter-Glo cell viability; format: cell-based; conditions: Homo sapiens, U-937; overnight, n = 8, ± SEM, fit top = 100, bottom = 0, hill slope = −1; read-out: Compound EC50, U937 (cell viability)
Description: as §1

U937 cells [6] = assay: Cell viability by 7-AAD exclusion with or without KH7; format: cell-based, human; conditions: overnight, 6 μM KH7, 7-AAD staining
Description: Cells treated with ICE and control samples were incubated with 1 μg/ml of 7-AAD for 20-60 minutes at 4°C on a rotator in the dark, and analyzed by flow cytometry according to manufacturer instructions. Gates were set on 7-AAD negative and positive events based on histograms. Percent of 7-AAD negative events is shown.

B-ALL cell lines [7] = assay: F-cAMP efflux in B-ALL cell lines with MK-571; format: cell-based, human; conditions: 37°C
Description: (§2) Cells were loaded with F-cAMP as described. Briefly, cells were resuspended in a hypertonic solution containing 10% polyethylene glycol 1000, 0.5 M sucrose, and 250 μM F-cAMP in cRPMI without FBS, incubated 10 min at room temperature, washed, and then resuspended in hypotonic solution (60% cRPMI, 40% sterile water) for 2 min at room temperature to complete F-cAMP loading. Cells were resuspended in cRPMI and equilibrated for 2 h under normal culture conditions.
(§3) Samples were evaluated using Accuri C6 or BD FACScan flow cytometers (Becton Dickinson (BD)).

U937 cells [8] = assay: F-cAMP efflux assay in U937 cells (screen and dose response); format: cell-based, human; conditions: for Outcome of screen for inhibitors of cAMP efflux after dose-response validation: screen at 10 μM, 51 hits retested in dose-response
Description: as §2, §3
Liquid handling was accomplished with a Biomek FX Multichannel system (Beckman-Coulter, Fullerton, CA, USA) and/or Biotek Multiflo system (Winooski, VT, USA). F-cAMP-loaded U937 cells (2000/well) were seeded into 384-well polypropylene plates (Greiner Bio-One 784201, Monroe, NC, USA). Cells were treated with compounds (10 μM final concentration) from the Prestwick Chemical Library (Illkirch, France) or […] Collection (MicroSource, Gaylordsville, CT, USA) delivered by pintool (V&P Scientific, San Diego, CA), at a final DMSO concentration of 1%. Plates were foil-sealed with AlumaSeal 384™ (Excel Scientific, Victorville, CA, USA), and incubated inverted overnight. Sample plates were analyzed by CyAn flow cytometers (Beckman-Coulter) configured with HyperCyt high-throughput auto-sampler systems (IntelliCyt, Albuquerque, NM, USA) using 488 nm excitation to assess FL-1 (530/40) MFI levels.
Data were analyzed with HyperView software (IntelliCyt) and time-gated to determine data from each well. Wells with ≥ 50 events were evaluated for FL-1 MFI values. Samples with MFI values ≥ 2 standard deviations above the plate mean negative control values were considered “hit” compounds.
To validate sample data and decrease the number of false-positive hits, compounds were assayed in a high-throughput dose response assay. Plates were set up as in the HTS, with the exception that the plate formats contained 10-well dose responses for each hit compound, at final concentrations ranging from 30 μM to 4 nM.
The dose response data were normalized for percent response based on sample FL-1 MFI values in comparison to untreated F-cAMP-loaded cells kept at 4°C overnight or at time = 0, and were fitted by GraphPad Prism 5 software (GraphPad Software, La Jolla, CA, USA) for sigmoidal dose response with constrained hill slope = 1.

Reh = assay: CellTiter-Glo cell viability; format: cell-based; conditions: Homo sapiens, overnight, n = 6, ± SEM, read-out: Compound EC50, Reh (cell viability)
Description: as §1

[9] = mean of converged EC50s, read-out: Compound EC50, Means (of the apoptosis endpoints)
[10] = n = 4, ± SEM, read-out: Compound EC50, Cell membrane damage
[11] = n = 4, ± SEM, read-out: Compound EC50, Mitochondrial depolarization
[12] = mean of converged EC50s of six patient samples, read-out: Compound EC50 (Sample means), cell viability
[13] = primary B-ALL sample, duplicate, ± SEM, read-out: Compound EC50 (Patient no. 1), cell viability
[14] = primary B-ALL sample, duplicate, ± SEM, read-out: Compound EC50 (Patient no. 2), cell viability
[15] = primary B-ALL sample, duplicate, ± SEM, read-out: Compound EC50 (Patient no. 3), cell viability
[16] = primary B-ALL sample, duplicate, ± SEM, read-out: Compound EC50 (Patient no. 5), cell viability
[17] = primary B-ALL sample, duplicate, ± SEM, read-out: Compound EC50 (Patient no. 6), cell viability

Molecule: 4-((N'-2-methylphenyl)ureido)-phenylacetyl-L-leucyl-L-aspartyl-L-valyl-L-prolyl-L-alanyl-L-alanyl-L-lysine-FITC [LDV-FITC]
Kd (VLA-4; high affinity state, read-out: Kd for physiologically activated VLA-4): 0.001 to 0.002 µM
Kd (VLA-4; low affinity state, read-out: Kd for binding to resting VLA-4): ~0.012 µM

EC50 (U937 cells [1]; [9]): 24.6 µM
EC50 (U937 cells [1]; n = 4, ± SEM, read-out: Compound EC50, Annexin-V +): 29.5 ± 1.85 µM
EC50 (U937 cells [1]; [11]): 25.7 ± 0.82 µM
EC50 (RS4;11): 33.7 ± 10.6 µM
EC50 (U937 cells [5]): 7.99 ± 3.24 µM
Molecule: C[C@H]1[C@H](OC(=O)CCC(=O)O)O[C@@H]2O[C@@]3(C)CC[C@H]4[C@H](C)CC[C@@H]1[C@@]24OO3 [Artesunate]
EC50 (normal human PBMCs): 280 ± 91.4 µM
EC50 (U937 cells [1]; [10]): 18.6 ± 1.89 µM
Anticancer effects [2]: ↓metastasis/migration [80, 83]; ↓VEGF expression/angiogenesis [70, 76, 80]; ↓cyclins B & D1, Cdks 2, 4, 6[70]; ↑p21, p27 [70]
Potential mechanism(s) of action [2]: ↓NFκB & AP-1 activation [83, 130, 131]; ↓nitric oxide, cAMP-mediated, Wnt/β-catenin, PI3K/Akt signaling [81, 130, 131]; ↑ROS [70, 72, 78]
EC50 (B-ALL cell lines [3]): 153 µM
Sensitivity of B-ALL lines compared with U937 cells (B-ALL cell lines [3]): decreased sensitivity
EC50 [4, 12]: 84.6 µM
EC50 [4, 13]: 116 ± 55.2 µM
EC50 [4, 14]: 115 ± 22.7 µM
EC50 [4, 15]: 66 ± 27.6 µM
EC50 [4, 16]: 24.6 ± 12.2 µM
EC50 [4, 17]: 100 ± 48.7 µM
EC50 (Sup B15): 326 ± 88.5 µM
EC50 697: 99.6 ± 27.7 µM

EC50 (U937 cells [1]; [9]): 16.4 µM
EC50 (U937 cells [1]; [11]): 9.21 ± 7.52 µM
EC50 (RS4;11): 26.2 ± 7.94 µM
EC50 (U937 cells [5]): 1.32 ± 0.58 µM
Molecule: C[C@H]1[C@@H](O)O[C@@H]2O[C@@]3(C)CC[C@H]4[C@H](C)CC[C@@H]1[C@@]24OO3 [Dihydroartemisinin]
EC50 (normal human PBMCs): 128 ± 34.2 µM
EC50 (U937 cells [1]; [10]): 23.7 ± 19.4 µM
Anticancer effects [2]: ↓VEGF expression & angiogenesis [99, 101, 102]; ↓cyclin B, CDC25 [87]
EC50 (B-ALL cell lines [3]): 74.4 µM
Sensitivity of B-ALL lines compared with U937 cells (B-ALL cell lines [3]): decreased sensitivity
EC50 [4, 12]: 46.6 µM
EC50 [4, 14]: 47.5 ± 12.2 µM
EC50 [4, 15]: 83.2 ± 74.2 µM
EC50 [4, 16]: 11.5 ± 5.02 µM
EC50 [4, 17]: 44.1 ± 32.2 µM
Cell viability vs. vehicle treated sample at lower concentrations ([4]; samples from patients no. 1 and no. 5): significant increase in cell viability
EC50 (Sup B15): 141 ± 49.5 µM
EC50 697: 55.5 ± 16.8 µM

Molecule: CC(Sc1nc2ccccc2[nH]1)C(=O)N/N=C/c1cc(Br)ccc1O (stereo not shown) [KH7]
Effect of KH7 on cell viability loss induced by ICE (U937 cells [6]): significant protective effect

EC50 (U937 cells [8]; Homo sapiens, U-937, read-out: EC50 for cAMP efflux blocking, U937 cells loaded with F-cAMP, overnight, 37°C): ~30 µM
EC50 (U937 cells [5]): 94.2 ± 35.5 µM
Molecule: CN(C)C(=O)CCSC(SCCC(=O)O)c1cccc(/C=C/c2ccc3ccc(Cl)cc3n2)c1 (stereo not shown) [MK-571]
Active F-cAMP efflux in the presence of MK-571 (B-ALL cell lines [7]; Group 1: Sup-B15 and MHH-Call3, overnight): blocked completely
F-cAMP removed with MK-571 (B-ALL cell lines [7]; Group 2: Reh and RS4;11, overnight, 75-80% without MK-571): 30-40%
F-cAMP removed with MK-571 (B-ALL cell lines [7]; Group 3: 697 and Nalm-6, overnight, > 90% without MK-571): 60-70%
EC50 (normal human PBMCs): 157 ± 66.4 µM
Block of loss of F-cAMP probe fluorescence (U937 cells [8]; U937 cells, 24 h, 37°C): A significant part of this loss was blocked
EC50 (B-ALL cell lines [3]): 165 µM
EC50 [4, 12]: 298 µM
EC50 [4, 13]: 298 ± 140 µM
EC50 (Sup B15): 144 ± 47.8 µM
EC50 (Reh): 226 ± 93.6 µM
EC50 697: 126 ± 109 µM

Molecule: C[C@@H]1CC[C@H]2[C@@H](C)C(=O)O[C@@H]3O[C@@]4(C)CC[C@@H]1[C@]32OO4 [artemisinin]
Outcome of screen for inhibitors of cAMP efflux after dose-response validation (U937 cells [8]): potentially active

Molecule: CC1=NCCc2c1[nH]c1cc(O)ccc21 [harmalol]
Outcome of screen for inhibitors of cAMP efflux after dose-response validation (U937 cells [8]): potentially active

Molecule: O=C1c2ccc(O)c(O)c2C(=O)c2c(O)ccc(O)c21 [quinalizarin]
Outcome of screen for inhibitors of cAMP efflux after dose-response validation (U937 cells [8]): potentially active
